# Results from patent publication US9693992B2 (MannKind Corporation, priority 2010, dated 2017).
# Tested on: XBP-1 splicing
# Assay: XBP-1 splicing inhibition in livers and kidneys of CB17 SCID mice after tunicamycin
# Type: in vivo
# Details: 1 mg/kg IP, alone, relative to PBS treated mice
# Source text: The preclinical validation strategy employs a set of animal models representing normal tissues under chemical stress and multiple myeloma xenographs. The normal animal model is employed as a surrogate model where dose-related on-target activity of compounds can be confirmed in tissues sensitive to standard UPR inducing agents such as tunicamycin (Wu et al., Dev Cell. 2007 September; 13(1d):351-64). […] Upon induction with tunicamycin, tissues induce active XBP-1 mRNA splicing, and this activity is suppressed by IRE-1α inhibitors. This on-target ER stress animal model is a useful screening and early pharmacokinetic tool.
# CB17 SCID mice were treated with 1 mg/kg tunicamycin by intraperitoneal (IP) injection at time 0 (T=0). Two hours later, compound A formulated in 10% hydroxy beta propyl cyclo dextran HBPCD was administered by IP injection. Doses were 50 mg/kg, 25 mg/kg and 10 mg/kg (4 mice in each group). Mice were sacrificed two hours later (4 hours from T=0), and the designated organs were harvested (FIG. 3A).
# RT-PCR analysis was performed using murine-specific XBP-1 primers from total RNA harvested from specified organs. […] Each lane represents an individual mouse where RNA was harvested and RT-PCR was performed. Method of RNA extraction and RT-PCR analysis is described in Volkmann et al., J. Biol. Chem. 286, 12743-55, 2011. […]
substance,measurement,value
tunicamycin,induction of XBP-1s,induces XBP-1 spliced
